Results taken from patent publication US20160083357A1, “NOVEL TETRAZOLONE DERIVATIVES” (Hoffmann-La Roche Inc., priority 2013, published 2016).
pEC50: −log10 of the molar value.

What was measured:
human CB2 receptors = target: T1, human CB2 receptors (Homo sapiens, UniProt P34972); assay: cAMP assay, human CB2; type: cell-based; conditions: functional cAMP assay, CHO cells expressing human CB2; read-out: Ec50: CB2 - hu cAMP
T1 construct: expressed in transfected cells; host or cells: CHO cells
Procedure, shortened: (§1)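 CHO cells expressing human CB1 or CB2, preincubated in Krebs Ringer bicarbonate with 1 mM IBMX, then compound for 30 min at 30° C. cAMP quantified by time-resolved FRET (cAMP-Nano-TRF) against a cAMP standard curve; EC50 values derived.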

human CB1 receptors = target: T2, human CB1 receptors (Homo sapiens, UniProt P21554); assay: cAMP assay, human CB1; type: cell-based; conditions: functional cAMP assay, CHO cells expressing human CB1; read-out: Ec50: CB1 - hu cAMP
T2 construct: expressed in transfected cells; host or cells: CHO cells
T2 sequence (P21554 whole entry): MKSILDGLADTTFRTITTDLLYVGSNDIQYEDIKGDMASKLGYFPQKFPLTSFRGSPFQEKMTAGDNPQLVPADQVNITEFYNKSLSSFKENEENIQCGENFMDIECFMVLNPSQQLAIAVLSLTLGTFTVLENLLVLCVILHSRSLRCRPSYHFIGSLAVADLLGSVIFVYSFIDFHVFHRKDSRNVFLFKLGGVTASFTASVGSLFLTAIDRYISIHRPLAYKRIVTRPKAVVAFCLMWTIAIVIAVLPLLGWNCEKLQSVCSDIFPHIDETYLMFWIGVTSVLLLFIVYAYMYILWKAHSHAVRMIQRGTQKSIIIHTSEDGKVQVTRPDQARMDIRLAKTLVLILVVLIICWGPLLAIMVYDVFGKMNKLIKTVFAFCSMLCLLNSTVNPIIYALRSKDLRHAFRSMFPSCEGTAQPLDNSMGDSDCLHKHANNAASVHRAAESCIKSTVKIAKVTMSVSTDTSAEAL
Procedure, shortened: as §1

T1 sequence (P34972 whole entry): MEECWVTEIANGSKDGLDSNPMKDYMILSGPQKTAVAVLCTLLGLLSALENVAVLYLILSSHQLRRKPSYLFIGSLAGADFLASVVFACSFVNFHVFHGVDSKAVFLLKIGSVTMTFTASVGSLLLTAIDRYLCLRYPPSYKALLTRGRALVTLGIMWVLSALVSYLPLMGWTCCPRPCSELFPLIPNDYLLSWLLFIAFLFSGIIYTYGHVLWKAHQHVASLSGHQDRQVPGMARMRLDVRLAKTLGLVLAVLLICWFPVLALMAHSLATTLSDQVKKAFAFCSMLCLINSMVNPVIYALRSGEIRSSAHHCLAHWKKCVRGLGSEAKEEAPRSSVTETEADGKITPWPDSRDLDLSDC

| pEC50 (human CB2 receptors) | pEC50 (human CB1 receptors) | SMILES |
| --- | --- | --- |
| 8.08 | < 5.00 | Cc1cccc(-n2nnn(C(=O)N3CCOCC3)c2=O)c1 [Example 127, 1-(3-methylphenyl)-4-(morpholine-4-carbonyl)tetrazol-5-one] |
| 8.18 | < 5.00 | Cc1ccc(-n2nnn(C(=O)N3CCOCC3)c2=O)cc1 [Example 128, 1-(4-methylphenyl)-4-(morpholine-4-carbonyl)tetrazol-5-one] |
| 8.04 | < 5.00 | COc1cccc(-n2nnn(C(=O)N3CCOCC3)c2=O)c1 [Example 129, 1-(3-methoxyphenyl)-4-(morpholine-4-carbonyl)tetrazol-5-one] |
| 8.17 | < 5.00 | COc1ccc(-n2nnn(C(=O)N3CCOCC3)c2=O)cc1 [Example 130, 1-(4-methoxyphenyl)-4-(morpholine-4-carbonyl)tetrazol-5-one] |
| 8.15 | < 5.00 | O=C(N1CCOCC1)n1nnn(-c2cccc(Br)c2)c1=O [Example 135, 1-(3-bromophenyl)-4-(morpholine-4-carbonyl)tetrazol-5-one] |

Further lines, the molecule ahead of its results:

| SMILES | pEC50 (human CB2 receptors) | pEC50 (human CB1 receptors) |
| --- | --- | --- |
| O=C(N1CCOCC1)n1nnn(-c2cccc(Cl)c2Cl)c1=O [Example 131, 1-(2,3-dichlorophenyl)-4-(morpholine-4-carbonyl)tetrazol-5-one] | 7.80 | < 5.00 |
| Cn1ccc2c(-n3nnn(C(=O)N4CCOCC4)c3=O)cccc21 [Example 132, 1-(1-methylindol-4-yl)-4-(morpholine-4-carbonyl)tetrazol-5-one] | 8.12 | < 5.00 |
| Cn1ccc2cc(-n3nnn(C(=O)N4CCOCC4)c3=O)ccc21 [Example 133, 1-(1-methylindol-5-yl)-4-(morpholine-4-carbonyl)tetrazol-5-one] | 7.74 | < 5.00 |
| Cn1ccc2ccc(-n3nnn(C(=O)N4CCOCC4)c3=O)cc21 [Example 134, 1-(1-methylindol-6-yl)-4-(morpholine-4-carbonyl)tetrazol-5-one] | 8.10 | < 5.00 |
| C[C@@H]1CN(C(=O)n2nnn(-c3cccc(Cl)c3)c2=O)C[C@H](C)O1 [Example 136, 1-(3-chlorophenyl)-4-[(2R,6S)-2,6-dimethylmorpholine-4-carbonyl]tetrazol-5-one] | 6.29 | < 5.00 |
| CC1CN(C(=O)n2nnn(-c3cccc(Cl)c3)c2=O)CC(C)O1 (stereo not drawn) [Example 137, 1-(3-chlorophenyl)-4-(2,6-dimethylmorpholine-4-carbonyl)tetrazol-5-one] | 6.89 | < 5.00 |
| CC1(C)CCN(C(=O)n2nnn(-c3cccc(Cl)c3)c2=O)C1 [Example 138, 1-(3-chlorophenyl)-4-(3,3-dimethylpyrrolidine-1-carbonyl)tetrazol-5-one] | 8.30 | < 5.00 |
